Experimental data taken from patent US20130302422A1, “PHARMACEUTICAL COMPOSITION FOR TREATMENT AND PREVENTION OF KIDNEY DISEASES” (KT & G CORPORATION, priority 2007, published 2013).

What was measured:
[1] = test system: acute renal failure-induced animals; test: Acute renal failure induced by ischaemia/reperfusion injury in rats (Experimental Example 1); format: in vivo, Sprague-Dawley rats
Text: Creatine is non-enzymatically converted into creatinine that is a waste product of muscle energy metabolism. Creatinine is a waste by-product and is therefore filtered by the kidney, but not reabsorbed. Since the muscle mass is generally maintained at a constant level and is less susceptible to other organs except for the kidney, a serum creatinine level is a good marker of the glomerular filtration rate. A higher creatinine concentration reflects more significant impairment of renal function. For example, a two-fold increase of the creatinine level represents a 50% decrease of the glomerular filtration rate.
Accumulation of toxic ammonia in the body is prevented in a manner that ammonia is produced by deamination of amino acids during a protein metabolic process and is then converted into urea in the liver. When excretory function of the kidney is compromised, the blood urea nitrogen level is elevated. Therefore, measurement of BUN is an important indicator to examine whether the kidney is normally functional or not. When the BUN level is elevated over a normal value, the subject is suspected to have acute nephritis, chronic nephritis, prostate hyperplasia or the like. When the BUN level is dropped below a normal value, the subject is suspected to have diabetes insipidus, muscular dystrophy or the like.
Among compounds of Formula 1, effects of 7,8-dihydro-2,2-dimethyl-2H-naphtho(2,3-b)dihydropyran-7,8-dione (hereinafter, referred to as “compound of Example 1”) on acute renal failure were examined. For this purpose, 6-week-old male Sprague-Dawley rats, weighing 200 to 220 g (Japan SLC, Inc., Japan) were divided into two groups as given in Table 1 below: a vehicle-treated control group and a group received the compound of Example 1 (200 mg/kg). Animals were given test samples by the oral route. […]
Following the IR induction, 0.2 mL of serum was sampled from each animal on +1 day, +3 day and +5 day, respectively. Creatinine and BUN (blood urea nitrogen) levels were measured with an automatic biochemical analyzer (HITACHI, 7020).

[2] = test system: diabetic nephropathy-induced animals; test: Diabetic nephropathy model in ZDF rats (Experimental Example 2); format: in vivo, Zucker diabetic fatty (ZDF) rats; settings: 250 mg/kg oral
Text: When the blood glucose level is elevated, glucose in the blood partially binds to hemoglobin in red blood cells, producing glycosylated hemoglobin (termed HbAlc). When glycosylated hemoglobin is formed, the corresponding red blood cells will retain HbAlc until the red blood cells complete their lives to be destroyed. […] The HbAlc reflect a blood glucose value over a relatively long period of time, so the measurement of the HbAlc level may be a useful indicator of how well diabetes has been therapeutically controlled over the past several months.
An increase in the rate of excretion of albumin in the urine is the most preceding clinical finding in diabetic nephropathy. Therefore, an increased level of urine albumin is an indicator of renal or hepatic diseases.
8-week-old male Zucker diabetic fatty (ZDF) rats (Charles River Laboratory) were divided into four groups as given in Table 2 below: Vehicle, MB660 (250 mg/kg), Pair-fed, and Rosi (6 mg/kg). Animals were orally given test samples.
Diabetic nephropathy model animals were fed with a low-fat feed (11.9 kcal % fat, 5053, Labdiet). Animals with a blood glucose level of 300 mg/dl and a body weight (BW) of more than 300 g were selected and treated with test samples for 4 and 8 weeks, respectively (total 12 and 16 weeks old). In-vivo changes in glycosylated hemoglobin (HbAlc), urine albumin and urine protein (1,000× urine albumin/urine creatinine) associated with kidney diseases were observed. Albumin was measured using an immunoturbidimetric assay, and creatinine was measured using a Jaffe rate method.

Q: With `CC1(C)CCC2=C(O1)c1ccccc1C(=O)C2=O` [Example 1, 7,8-dihydro-2,2-dimethyl-2H-naphtho(2,3-b)dihydropyran-7,8-dione] as the compound, how does the serum creatinine level ([1]; 200 mg/kg oral for two weeks before IR induction, serum on +1, +3, +5 day, vs control group, most prominent after 3 days of reperfusion (FIG. 1)) read?
A: Its serum creatinine level is “significantly decreased”.

Q: What about the “serum BUN (blood urea nitrogen) level” value ([1]; 200 mg/kg oral for two weeks before IR induction, serum on +1, +3, +5 day, vs control group, most remarkable after 3 days of reperfusion (FIG. 2)) of the same compound?
A: The value was “significant reduction”.

Q: And the glomerular filtration rate ([1]; 200 mg/kg oral, inferred from serum creatinine and BUN results)?
A: Its glomerular filtration rate is “elevation”.

Q: And the “glycosylated hemoglobin (HbAlc)” value ([2]; treated 4 and 8 weeks (FIG. 3))?
A: The value was “significantly low”.

Q: What about the urine albumin level ([2]; treated 4 and 8 weeks, compared with Rosiglitazone 6 mg/kg group (FIG. 5)) of the same compound?
A: The urine albumin level was “lower”.

Q: What about the “daily urine protein level (1000× urine albumin/urine creatinine)” value ([2]; treated 4 and 8 weeks, compared with Rosiglitazone 6 mg/kg group (FIG. 6)) of the same compound?
A: The value was “lower”.

Q: And the left kidney weight ([2]; treated 4 and 8 weeks, vs diabetic nephropathy-induced control group (FIG. 4))?
A: Its left kidney weight is “significant decrease”.
